# ChEMBL document CHEMBL4823282, “Novel Broad-Spectrum Antimicrobial Peptide Derived from Anoplin and Its Activity on Bacterial Pneumonia in Mice” (J Med Chem, 2021)
# Active and inactive are the calls of the source. The rule behind the calls is not given here. Where a SMILES comes first, the peptide text is derived from it. Bridges are numbered along the chain shown (N, C = ends). [ ]: non-standard residue; d: D form. The star is where a group is joined. X1 = CC[C@H](C)CCCCC(=O)*; Dab = NCC[C@H](N)C(=O)O
# Legend:
# Klebsiella pneumoniae [1] = assay: Antibacterial activity against Klebsiella pneumoniae ATCC 700603 infected in BALB/C mouse assessed as reduction in alveolar shrinkage at 5 mg/kg, ip by hematoxylin and eosin staining based assay; assay type: functional, organism-based
# Cell membrane [2] = assay: Disruption of membrane integrity in Klebsiella pneumoniae ATCC 700603 assessed as membrane cracking at 1 times MIC incubated for 0.5 to 2 hrs by scanning electron microscopy; assay type: subcellular; details: Klebsiella pneumoniae 700603, time 0.5-2 hrs
# [3] = Toxicity in BALB/C mouse infected with Klebsiella pneumoniae ATCC 700603 assessed as change in liver color at 5 mg/kg, ip by hematoxylin and eosin staining based assay; assay type: organism-based; details: in vivo
# Klebsiella pneumoniae [4] = assay: Reduction in inflammatory cell infiltration in lung of BALB/C mouse infected with Klebsiella pneumoniae ATCC 700603 at 5 mg/kg, ip by hematoxylin and eosin staining based assay; assay type: functional, organism-based
# Cell membrane [5] = assay: Induction of outer membrane permeabilization in Klebsiella pneumoniae ATCC 700603 at 4MIC measured within 20 mins by N-phenylnaphthylamine dye based fluorescent method; assay type: subcellular; details: Klebsiella pneumoniae 700603
# Staphylococcus aureus [6] = assay: Antibacterial activity against Staphylococcus aureus ATCC 25923 incubated with 2000 ug/ml chymotrypsin for 6 hrs followed by bacterial addition and measured after 18 hrs by CLSI based broth dilution method; assay type: functional, organism-based; details: dose 2000.0 µg/ml, time 23.0 hrs
# Klebsiella pneumoniae [7] = assay: Antibiofilm activity against Klebsiella pneumoniae ATCC 700603 at 2 to 4 times MIC incubated for 24 hrs by crystal violet staining based assay; assay type: functional, organism-based
# Klebsiella pneumoniae [8] = assay: Antibacterial activity against Klebsiella pneumoniae ATCC 700603 infected in BALB/C mouse assessed as reduction in inflammatory cell infiltration in […] at 5 mg/kg, ip by hematoxylin and eosin staining based assay; assay type: functional, organism-based
# [9] = Toxicity in BALB/C mouse infected with Klebsiella pneumoniae ATCC 700603 assessed as hepatic hemorrhage at 5 mg/kg, ip by hematoxylin and eosin staining based assay; assay type: organism-based; details: in vivo
# Klebsiella pneumoniae [10] = assay: Antibacterial activity against Klebsiella pneumoniae ATCC 700603 incubated with 2000 ug/ml trypsin for 6 hrs followed by bacterial addition and measured after 18 hrs by CLSI based broth dilution method; assay type: functional, organism-based; details: dose 2000.0 µg/ml, time 23.0 hrs
# Klebsiella pneumoniae [11] = assay: Antibiofilm activity against Klebsiella pneumoniae ATCC 700603 incubated for 24 hrs by crystal violet staining based assay; assay type: functional, organism-based
# Klebsiella pneumoniae [12] = assay: Antibacterial activity against Klebsiella pneumoniae ATCC 700603 infected in BALB/C mouse assessed as alveolar expansion at 5 mg/kg, ip by hematoxylin and eosin staining based assay; assay type: functional, organism-based
# [13] = Induction of glomerulus hemorrhage in BALB/C mouse at 82 mg/kg, ip administered as single dose by hematoxylin and eosin staining based assay; assay type: organism-based; details: in vivo
# Escherichia coli [14] = assay: Antibiofilm activity against Escherichia coli ATCC 25922 incubated for 24 hrs by crystal violet staining assay; assay type: functional, organism-based
# Escherichia coli [15] = assay: Synergistic antibacterial activity against Escherichia coli ATCC 25922 at 2 times MIC incubated for 18 to 24 hrs in presence of 2 times MIC of polymyxin B by broth microdilution assay based checkerboard assay; assay type: functional; details: time 18-24 hrs
# Klebsiella pneumoniae [16] = assay: Antibacterial activity against Klebsiella pneumoniae ATCC 700603 infected in BALB/C mouse assessed as reduction in bacterial load in lung at 10 mg/kg, ip measured within 24 hrs by agar plate counting method (reference value: 2.77 x 10^7 CFU/mg); assay type: functional
# Klebsiella pneumoniae [17] = assay: Disruption of membrane integrity in Klebsiella pneumoniae ATCC 700603 assessed as membrane creeping at 1 times MIC incubated for 0.5 to 2 hrs by scanning electron microscopy; assay type: functional, organism-based; details: time 0.5-2 hrs
# Klebsiella pneumoniae [18] = assay: Disruption of membrane integrity in Klebsiella pneumoniae ATCC 700603 assessed as content leakage at 1 times MIC incubated for 0.5 to 2 hrs by scanning electron microscopy; assay type: functional, organism-based; details: time 0.5-2 hrs
# Cell membrane [19] = assay: Disruption of membrane integrity in Klebsiella pneumoniae ATCC 700603 assessed as membrane shrinking at 1 times MIC measured within 0.5 to 2 hrs by scanning electron microscopy; assay type: subcellular; details: Klebsiella pneumoniae 700603, time 0.5-2 hrs
# [20] = Toxicity in BALB/C mouse assessed as effect on spleen at 19 mg/kg, ip administered as single dose by hematoxylin and eosin staining based assay; assay type: organism-based; details: in vivo
# [21] = Toxicity in BALB/C mouse assessed as effect on heart at 19 mg/kg, ip administered as single dose by hematoxylin and eosin staining based assay; assay type: organism-based; details: in vivo
# [22] = Toxicity in BALB/C mouse assessed as effect on lung at 19 mg/kg, ip administered as single dose by hematoxylin and eosin staining based assay; assay type: organism-based; details: in vivo
# [23] = Stability in BALB/C mouse serum measured up to 1440 mins by HPLC analysis; assay type: ADME, cell-free
# [24] = Toxicity in BALB/C mouse assessed as mouse death at 15 to 25 mg/kg, ip measured after 24 hrs; assay type: organism-based; details: in vivo, dose 15-25 mg/kg
# [25] = Toxicity in BALB/C mouse assessed as induction of tissue hemorrhage at 19 mg/kg, ip administered as single dose by hematoxylin and eosin staining based assay; assay type: organism-based; details: in vivo
# Klebsiella pneumoniae [26] = assay: Disruption of membrane integrity in Klebsiella pneumoniae ATCC 700603 assessed as pore formation at 1 times MIC incubated for 0.5 to 2 hrs by scanning electron microscopy; assay type: functional, organism-based; details: time 0.5-2 hrs
# [27] = Induction of inflammation in BALB/C mouse at 82 mg/kg, ip administered as single dose by hematoxylin and eosin staining based assay; assay type: organism-based; details: in vivo
# Klebsiella pneumoniae [28] = assay: Antibacterial activity against Klebsiella pneumoniae ATCC 700603 incubated with 0.2 to 0.02 ug/ml trypsin for 6 hrs followed by bacterial addition and measured after 18 hrs by CLSI based broth dilution method; assay type: functional, organism-based; details: dose 0.2-0.02 µg/ml, time 23.0 hrs
# Klebsiella pneumoniae [29] = assay: Antibacterial activity against Klebsiella pneumoniae ATCC 700603 incubated with 0.2 to 0.02 ug/ml chymotrypsin for 6 hrs followed by bacterial addition and measured after 18 hrs by CLSI based broth dilution method; assay type: functional, organism-based; details: dose 0.2-0.02 µg/ml, time 23.0 hrs
# Staphylococcus aureus [30] = assay: Disruption of membrane integrity in Staphylococcus aureus ATCC 25923 assessed as content leakage at 1 times MIC incubated for 0.5 to 2 hrs by scanning electron microscopy; assay type: functional, organism-based; details: time 0.5-2 hrs
# [31] = Induction of renal interstitial cell hemorrhage in BALB/C mouse at 82 mg/kg, ip administered as single dose by hematoxylin and eosin staining based assay; assay type: organism-based; details: in vivo
# Staphylococcus aureus [32] = assay: Disruption of membrane integrity in Staphylococcus aureus ATCC 25923 assessed as membrane creeping at 1 times MIC incubated for 0.5 to 2 hrs by scanning electron microscopy; assay type: functional, organism-based; details: time 0.5-2 hrs
# Staphylococcus aureus [33] = assay: Bactericidal activity against Staphylococcus aureus ATCC 25923 at 2MIC measured within 3 hrs by time-kill assay relative to control; assay type: functional
# Cell membrane [34] = assay: Induction of outer membrane permeabilization in Klebsiella pneumoniae ATCC 700603 measured within 1 mins by N-phenylnaphthylamine dye based fluorescent method; assay type: subcellular; details: Klebsiella pneumoniae 700603
# Staphylococcus aureus [35] = assay: Antibacterial activity against Staphylococcus aureus ATCC 25923 incubated with 0.2 to 0.02 ug/ml chymotrypsin for 6 hrs followed by bacterial addition and measured after 18 hrs by CLSI based broth dilution method; assay type: functional, organism-based; details: dose 0.2-0.02 µg/ml
# Pseudomonas aeruginosa = assay: Synergistic antibacterial activity against Pseudomonas aeruginosa ATCC 27853 at 2 times MIC incubated for 18 to 24 hrs in presence of 2 times MIC of polymyxin B by broth microdilution assay based checkerboard assay; assay type: functional; details: time 18-24 hrs
structure (smiles),measurement,setting,value
CC[C@H](C)CCCCC(=O)N[C@@H](CCN)C(=O)N[C@H](C(=O)N[C@@H](CCN)C(=O)N[C@H]1CCNC(=O)[C@H]([C@@H](C)O)NC(=O)[C@H](CCN)NC(=O)[C@H](CCN)NC(=O)[C@H](CC(C)C)NC(=O)[C@@H](Cc2ccccc2)NC(=O)[C@H](CCN)NC1=O)[C@@H](C)O (X1-[Dab]T[Dab][Dab][Dab][dF]L[Dab][Dab]T; lactam 4-C),Activity,Klebsiella pneumoniae [1],inactive
same,Activity,Cell membrane [2],Active
same,Activity,[3],Toxic
same,Activity,Klebsiella pneumoniae [4],inactive
same,Activity,Cell membrane [5],Active
same,Activity,Staphylococcus aureus [6],Active
same,Activity,Klebsiella pneumoniae [7],Active
same,Activity,Klebsiella pneumoniae [8],inactive
same,Activity,[9],Toxic
same,Activity,Klebsiella pneumoniae [10],Active
NCCCC[C@H](NC(=O)[C@H](CCCCN)NC(=O)[C@H](Cc1c[nH]c2ccccc12)NC(=O)[C@H](CCCCN)NC(=O)[C@H](CCCCN)NC(=O)[C@H](Cc1c[nH]c2ccccc12)NC(=O)[C@H](Cc1c[nH]c2ccccc12)NC(=O)[C@@H](N)CCCCN)C(=O)N[C@@H](Cc1c[nH]c2ccccc12)C(=O)N[C@@H](Cc1c[nH]c2ccccc12)C(N)=O (H-KWWKKWKKWW-NH2),Activity,Klebsiella pneumoniae [11],Dose-Dependent Effect
same,Activity,Klebsiella pneumoniae [12],Active
same,Activity,[13],Toxic
same,Activity,Escherichia coli [14],Dose-Dependent Effect
same,FIC,Escherichia coli [15],0.3125
same,Activity,Klebsiella pneumoniae [16],3.26 10^3CFU/mg
same,Activity,Klebsiella pneumoniae [17],Active
same,Activity,Klebsiella pneumoniae [18],Active
same,Activity,Cell membrane [19],Active
same,Activity,[20],Toxic
same,Activity,[21],Toxic
same,Activity,[22],Toxic
same,half-life,[23],50.1 min
same,Activity,[24],Toxic
same,Activity,[25],Toxic
same,Activity,Klebsiella pneumoniae [26],Active
same,Activity,[27],Toxic
same,Activity,Klebsiella pneumoniae [28],Active
same,Activity,Klebsiella pneumoniae [29],Active
same,Activity,Staphylococcus aureus [30],Active
same,Activity,[31],Toxic
same,Activity,Staphylococcus aureus [32],Active
same,Activity,Staphylococcus aureus [33],100%
same,Activity,Cell membrane [34],Dose-Dependent Effect
same,Activity,Staphylococcus aureus [35],inactive
same,FIC,Pseudomonas aeruginosa,0.5625
